Experimental data from patent US20220265817A1, “THERAPEUTIC COMPOSITIONS AND METHODS FOR TREATING HEPATITIS B” (priority 2017, published 2022).
Read-outs that look alike come from different tables or passages of the source.

What was measured:
Experiment in all cases: microbe, parasite or virus in culture
Format in all cases: cell-based
Conditions in all cases: Hepatitis B virus, Hepatocyte
[1] = tested on: D type HBV in primary human hepatocytes
Description: (§1) The mouse liver perfusion was applied to isolate PHHs. The isolated hepatocytes were further purified by Percoll. The cells were resuspended with culture media and seeded into the 96-well plates (6×10^4 cell/well) or 48-well plates (1.2×10^5 cell/well). The PHHs were infected with a D type HBV one day post seeding (day 1).
(§2) On day 2, the test compounds were diluted and added into the cell culture plates. The culture media containing the compounds were refreshed every other day. The cell culture supernatants were collected on day 8 for the HBV DNA and antigen determinations.
(§3) The compounds were tested at 7 concentrations, 3-fold dilution, in triplicate.
(§4) Two compounds were tested at 5×5 matrix, in triplicate plates.
DNA in the culture supernatants harvested on days 8 were isolated with QIAamp 96 DNA Blood Kit (Qiagen-51161). For each sample, 100 μl of the culture supernatants was used to extract DNA. The DNA was eluted with 100 μl, 150 μl or 180 μl of AE. HBV DNA in the culture supernatants was quantified by qPCR. The combination effect was analyzed by the MacSynergy software. The primers are described below.

[2] = tested on: D type HBV in primary human hepatocytes (HBsAg)
Description: as §1, §2, §3, §4
(§5) HBsAg/HBeAg in the culture supernatants harvested on days 8 were measured by the HBsAg/HBeAg ELISA kit (Autobio) according to the manual. The samples were diluted with PBS to get the signal in the range of the standard curve. The inhibition rates were calculated with the formula below. The combination effect was analyzed by the MacSynergy software.
% Inh. HBsAg=[1-HBsAg quantity of sample/HBV quantity of DMSO control]×100.

[3] = tested on: D type HBV in primary human hepatocytes (HBeAg)
Description: as §1, §2, §3, §4, §5
% Inh. HBeAg=[1-HBeAg quantity of sample/HBV quantity of DMSO control]×100.

[4] = 456 h, read-out: Inhibitor B EC50

Q: For `CC[C@@H](C)NS(=O)(=O)c1ccc(F)c(C(=O)Nc2ccc(F)c(F)c2)c1` [Compound 3], which EC50 ([1]; 456 h, HBV DNA endpoint, PHH, determined in an earlier separate experiment (Table 19d), read-out: Inhibitor B EC50) is on record?
A: 0.877 µM

Q: What about the EC50 ([1]; 576 h, PHH, determined in an earlier separate experiment (Table 24d), read-out: Inhibitor B EC50 HBV DNA) of the same molecule?
A: 0.877 µM

Q: What about the inhibition at 0.06173 µM ([1]; read-out: AVERAGE % […] DNA, COMPOUND 3 61.73 nM alone (Table 19a)) of the same molecule?
A: -28.1%

Q: What about the inhibition at 0.06864 µM ([1]; read-out: AVERAGE % […] DNA, COMPOUND 3 68.64 nM alone (Table 20a)) of the same molecule?
A: -2.79%

Q: What about the inhibition at 0.18519 µM ([1]; read-out: AVERAGE % […] DNA, COMPOUND 3 185.19 nM alone (Table 19a), read-out: AVERAGE % INHIBITION HBV DNA) of the same molecule?
A: -25.9%

Q: And the inhibition at 0.20593 µM ([1]; read-out: AVERAGE % […] DNA, COMPOUND 3 205.93 nM alone (Table 20a))?
A: -5.02%

Q: What about the inhibition at 0.55556 µM ([1]; read-out: AVERAGE % […] DNA, COMPOUND 3 555.56 nM alone (Table 19a), read-out: AVERAGE % INHIBITION HBV DNA) of the same molecule?
A: -3.32%

Q: And the inhibition at 0.61778 µM ([1]; read-out: AVERAGE % […] DNA, COMPOUND 3 617.78 nM alone (Table 20a))?
A: 34.8%

Q: What about the inhibition at 1.66667 µM ([1]; read-out: AVERAGE % […] DNA, COMPOUND 3 1666.67 nM alone (Table 19a)) of the same molecule?
A: 25.9%

Q: And the inhibition at 1.85333 µM ([1]; read-out: AVERAGE % […] DNA, COMPOUND 3 1853.33 nM alone (Table 20a))?
A: 66.4%

Q: And the inhibition at 5 µM ([1]; read-out: AVERAGE % […] DNA, COMPOUND 3 5000.00 nM alone (Table 19a), read-out: AVERAGE % INHIBITION HBV DNA)?
A: 74.8%

Q: What about the inhibition at 5.56 µM ([1]; read-out: AVERAGE % […] DNA, COMPOUND 3 5560.00 nM alone (Table 20a)) of the same molecule?
A: 85.3%

Q: And the inhibition at 61.73 µM ([1]; read-out: AVERAGE % […] DNA, COMPOUND 3 61.73 μM alone)?
A: -11.7%

Q: And the inhibition at 185.19 µM ([1]; read-out: AVERAGE % […] DNA, COMPOUND 3 185.19 μM alone)?
A: 4.14%

Q: And the inhibition at 555.56 µM ([1]; read-out: AVERAGE % […] DNA, COMPOUND 3 555.56 μM alone)?
A: 26.5%

Q: And the inhibition at 1666.67 µM ([1]; read-out: AVERAGE % […] DNA, COMPOUND 3 1666.67 μM alone)?
A: 69.4%

Q: What about the inhibition at 5000 µM ([1]; read-out: AVERAGE % […] DNA, COMPOUND 3 5000.00 μM alone) of the same molecule?
A: 84.3%

Q: What about the EC50 ([1]; HBV DNA, determined in an earlier separate experiment, read-out: Inhibitor EC50) of the same molecule?
A: 0.877 µM

Q: And the EC50 [2, 4]?
A: 7.79 µM

Q: What about the EC50 ([2]; 576 h, read-out: Inhibitor B EC50 HBsAg) of the same molecule?
A: 7.79 µM

Q: And the inhibition at 0.06173 µM ([2]; read-out: AVERAGE % INHIBITION HBsAg, COMPOUND 3 61.73 nM alone (Table 19b))?
A: -20%

Q: And the inhibition at 0.06864 µM ([2]; read-out: AVERAGE % INHIBITION HBsAg, COMPOUND 3 68.64 nM alone (Table 20b))?
A: -16.4%

Q: And the inhibition at 0.18519 µM ([2]; read-out: AVERAGE % INHIBITION HBsAg, COMPOUND 3 185.19 nM alone (Table 19b))?
A: -17.3%

Q: What about the inhibition at 0.20593 µM ([2]; read-out: AVERAGE % INHIBITION HBsAg, COMPOUND 3 205.93 nM alone (Table 20b)) of the same molecule?
A: -21.6%

Q: What about the inhibition at 0.55556 µM ([2]; read-out: AVERAGE % INHIBITION HBsAg, COMPOUND 3 555.56 nM alone (Table 19b)) of the same molecule?
A: -14%

Q: What about the inhibition at 0.61778 µM ([2]; read-out: AVERAGE % INHIBITION HBsAg, COMPOUND 3 617.78 nM alone (Table 20b)) of the same molecule?
A: -5.12%

Q: And the inhibition at 1.66667 µM ([2]; read-out: AVERAGE % INHIBITION HBsAg, COMPOUND 3 1666.67 nM alone (Table 19b))?
A: 1.44%

Q: And the inhibition at 1.85333 µM ([2]; read-out: AVERAGE % INHIBITION HBsAg, COMPOUND 3 1853.33 nM alone (Table 20b))?
A: 14.6%

Q: And the inhibition at 5 µM ([2]; read-out: AVERAGE % INHIBITION HBsAg, COMPOUND 3 5000.00 nM alone (Table 19b))?
A: 28.2%

Q: And the inhibition at 5.56 µM ([2]; read-out: AVERAGE % INHIBITION HBsAg, COMPOUND 3 5560.00 nM alone (Table 20b))?
A: 43.8%

Q: And the inhibition at 61.73 µM ([2]; read-out: AVERAGE % INHIBITION HBsAg, COMPOUND 3 61.73 μM alone)?
A: -5.49%

Q: And the inhibition at 185.19 µM ([2]; read-out: AVERAGE % INHIBITION HBsAg, COMPOUND 3 185.19 μM alone)?
A: -1.46%

Q: And the inhibition at 555.56 µM ([2]; read-out: AVERAGE % INHIBITION HBsAg, COMPOUND 3 555.56 μM alone)?
A: 4.63%

Q: What about the EC50 ([2]; read-out: Inhibitor EC50) of the same molecule?
A: 7.79 µM

Q: What about the EC50 [3, 4] of the same molecule?
A: 8.85 µM

Q: What about the EC50 ([3]; 576 h, read-out: Inhibitor B EC50 HBeAg) of the same molecule?
A: 8.58 µM

Q: What about the inhibition at 0.06173 µM ([3]; read-out: AVERAGE % INHIBITION HBeAg, COMPOUND 3 61.73 nM alone) of the same molecule?
A: -11.3%

Q: What about the inhibition at 0.18519 µM ([3]; read-out: AVERAGE % INHIBITION HBeAg, COMPOUND 3 185.19 nM alone) of the same molecule?
A: -16%

Q: And the inhibition at 0.55556 µM ([3]; read-out: AVERAGE % INHIBITION HBeAg, COMPOUND 3 555.56 nM alone)?
A: -5.39%

Q: What about the inhibition at 1.66667 µM ([3]; read-out: AVERAGE % INHIBITION HBeAg, COMPOUND 3 1666.67 nM alone) of the same molecule?
A: 2.34%

Q: And the inhibition at 5 µM ([3]; read-out: AVERAGE % INHIBITION HBeAg, COMPOUND 3 5000.00 nM alone)?
A: 27.3%

Q: What about the inhibition at 61.73 µM ([3]; read-out: AVERAGE % INHIBITION HBeAg, COMPOUND 3 61.73 μM alone) of the same molecule?
A: -11.1%

Q: What about the inhibition at 185.19 µM ([3]; read-out: AVERAGE % INHIBITION HBeAg, COMPOUND 3 185.19 μM alone) of the same molecule?
A: -4.9%

Q: What about the inhibition at 555.56 µM ([3]; read-out: AVERAGE % INHIBITION HBeAg, COMPOUND 3 555.56 μM alone) of the same molecule?
A: -1.02%

Q: And the inhibition at 0.06859 µM ([3]; read-out: AVERAGE % INHIBITION, TAF 0.00 nM, COMPOUND 3 68.59 nM)?
A: -5.05%

Q: And the inhibition at 0.20576 µM ([3]; read-out: AVERAGE % INHIBITION, TAF 0.00 nM, COMPOUND 3 205.76 nM)?
A: -6.33%

Q: What about the inhibition at 0.61728 µM ([3]; read-out: AVERAGE % INHIBITION, TAF 0.00 nM, COMPOUND 3 617.28 nM) of the same molecule?
A: 2.77%

Q: And the inhibition at 1.85185 µM ([3]; read-out: AVERAGE % INHIBITION, TAF 0.00 nM, COMPOUND 3 1851.85 nM)?
A: 29.7%

Q: And the inhibition at 5.55556 µM ([3]; read-out: AVERAGE % INHIBITION, TAF 0.00 nM, COMPOUND 3 5555.56 nM)?
A: 40.4%

Q: What about the EC50 ([3]; read-out: Inhibitor EC50) of the same molecule?
A: 8.85 µM
